Measured values reported in PubChem BioAssay (NCI).
Values joined by “and” are separate entries in the source; they are usually repeats but may differ in a detail not shown here. Equal entries are not always repeated.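 Values below derive from 48-hour exposures of cells grown in 96-well plates, with endpoints linearly interpolated between the two concentrations bracketing the appropriate inhibition level. GI50: concentration for 50% inhibition of growth. TGI: concentration producing complete growth inhibition.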

Columns and labels:
Assay in all cases: growth of human tumour cells (NCI), 48 h
A549 NSCLC = system: A549 NSCLC
ACHN renal = system: ACHN renal
COLO 205 colon = system: COLO 205 colon
EKVX NSCLC = system: EKVX NSCLC
HOP-92 NSCLC = system: HOP-92 NSCLC
K-562 leukemia = system: K-562 leukemia
NCI-H226 lung = system: NCI-H226 lung
OVCAR-4 ovarian = system: OVCAR-4 ovarian
SK-OV-3 ovarian = system: SK-OV-3 ovarian
UACC-62 melanoma = system: UACC-62 melanoma

Row | Compound | GI50 (A549 NSCLC) | TGI (A549 NSCLC) | GI50 (ACHN renal) | TGI (ACHN renal) | GI50 (COLO 205 colon) | TGI (COLO 205 colon) | GI50 (EKVX NSCLC) | TGI (EKVX NSCLC) | GI50 (HOP-92 NSCLC) | TGI (HOP-92 NSCLC) | GI50 (K-562 leukemia) | TGI (K-562 leukemia) | GI50 (NCI-H226 lung) | TGI (NCI-H226 lung) | GI50 (OVCAR-4 ovarian) | TGI (OVCAR-4 ovarian) | GI50 (SK-OV-3 ovarian) | TGI (SK-OV-3 ovarian) | GI50 (UACC-62 melanoma) | TGI (UACC-62 melanoma)
1 | CN1C(=O)N(C)C2C1NN=c1s/c(=C\c3ccc(F)cc3)c(=O)n12 (stereo not drawn) | 4.88 µM | > 100 µM | 4.39 µM | > 100 µM | 2.51 µM | > 100 µM | 4.02 µM | > 100 µM | 8.49 µM | > 100 µM | 0.54 µM | > 100 µM | 8.02 µM | > 100 µM | 3.05 µM | > 100 µM | 3.57 µM | > 100 µM | 3.61 µM | > 100 µM
2 | COc1ccc(/C=C\c2cc(OC)c(O[Si](C)(C)C(C)(C)C)c(OC)c2)cc1 | – | > 100 µM | – | > 100 µM | – | > 100 µM | – | > 100 µM | – | > 100 µM | – | > 100 µM | – | > 100 µM | – | > 100 µM | – | > 100 µM | – | > 100 µM
3 | O=C(N/N=C(/CCN1CCCC1)CC(c1ccccc1)c1c(O)c2ccccc2oc1=O)c1ccncc1 (stereo not drawn) | – | > 100 µM | – | > 100 µM | – | – | – | > 100 µM | – | > 100 µM | – | > 100 µM | – | > 100 µM | – | > 100 µM | – | > 100 µM | – | > 100 µM
4 | NCCCCNc1ccc2c(=O)[nH][nH]c(=O)c2c1 | – | > 100 µM | – | > 100 µM | – | > 100 µM | – | > 100 µM | – | > 100 µM | – | > 100 µM | – | > 100 µM | – | > 100 µM | – | > 100 µM | – | > 100 µM
5 | Cc1ccc(-c2csc(NC(=O)CN3CCN(c4cc5c(cc4F)c(=O)c(C(=O)O)cn5C4CC4)CC3)n2)cc1 | 0.433 µM | 13.9 µM | 2.58 µM | 14.3 µM | 1.66 µM | 3.75 µM | 1.53 µM | 23.9 µM | 1.13 µM | 5.13 µM | 0.771 µM | > 100 µM | 2.51 µM | 9.41 µM | 2.38 µM | > 100 µM | 1.3 µM | 5.52 µM | 1.26 µM | 13.1 µM
6 | Cc1ccc(-c2cc(-c3ccccc3)c(C#N)c(=O)n2C2OC(CO)C(O)C(O)C2O)cc1 (stereo not drawn) | – | > 100 µM | – | > 100 µM | – | > 100 µM | – | > 100 µM | – | > 100 µM | – | > 100 µM | – | > 100 µM | – | > 100 µM | – | > 100 µM | – | > 100 µM
7 | CC1C(=O)OCC2=CCN3CCC(OC(=O)C(C)C1(C)O)C23 (stereo not drawn) | – | > 100 µM | – | > 100 µM | – | > 100 µM | – | > 100 µM | – | > 100 µM | – | > 100 µM | – | > 100 µM | – | > 100 µM | – | > 100 µM | – | > 100 µM
8 | COC(=O)C(=O)C(C(=O)C(=O)Nc1cccc(C(C)=O)c1)c1nc2ccccc2[nH]c1=O (stereo not drawn) | – | > 100 µM | – | > 100 µM | – | > 100 µM | – | > 100 µM | – | > 100 µM | – | > 100 µM | – | > 100 µM | – | > 100 µM | – | > 100 µM | – | > 100 µM
9 | COc1ccc2c(c1)/C(=C\c1c(Cl)[nH]c3ccc(OC)cc13)C(=O)N2 | 65.1 µM | > 100 µM | 43.3 µM | > 100 µM | 18.9 µM | 39.8 µM | 84.7 µM | > 100 µM | 61.7 µM | > 100 µM | – | – | 41.9 µM | > 100 µM | 41.8 µM | > 100 µM | 41.9 µM | > 100 µM | 35.2 µM | > 100 µM
10 | CCCOc1ccc2nc(NC(=O)OC)[nH]c2c1 | 0.337 µM | > 100 µM | 1.2 µM | > 100 µM | 0.135 µM | 0.505 µM | 0.535 µM | > 100 µM | 0.18 µM | > 100 µM | – | – | 0.399 µM | – | 0.6 µM | > 100 µM | 0.262 µM | – | 0.215 µM | > 100 µM
11 | CC(=O)NC(CCCCNC(=O)NCCCl)C(=O)NCc1ccccc1 (stereo not drawn) | – | > 100 µM | – | > 100 µM | – | > 100 µM | – | > 100 µM | – | > 100 µM | – | > 100 µM | – | > 100 µM | – | > 100 µM | – | – | – | > 100 µM
12 | C/C(CCc1ccccc1)=N\NC(N)=S | – | > 100 µM | – | > 100 µM | – | > 100 µM | – | > 100 µM | – | > 100 µM | – | > 100 µM | – | > 100 µM | – | > 100 µM | – | > 100 µM | – | > 100 µM
13 | N#CCCN(CCC#N)c1ccc(C(Sc2ccccc2)C(NC(=O)c2cc([N+](=O)[O-])ccc2Cl)C(=O)Sc2ccccc2)cc1 (stereo not drawn) | 0.954 µM | 6.47 µM and 13.2 µM | 2.81 µM | 16.3 µM | 2.9 µM | 6.75 µM and 7.77 µM | 5.74 µM | 9.96 µM and 25.5 µM | – | 18.7 µM | 1.71 µM | 7.42 µM and 6.69 µM | – | 5.16 µM and 5.01 µM | 3.92 µM | 15.7 µM | 7.8 µM | 13.2 µM | 2.58 µM | 6.02 µM and 10.5 µM
14 | COC(=O)[C@]12CCC(C)[C@H](C)[C@H]1C1=CCC3[C@@]4(C)CC[C@H](OC(C)=O)C(C)(C)C4CC[C@@]3(C)C1(C)C(O)C2 (stereo partly drawn) | – | > 100 µM | – | > 100 µM | – | > 100 µM | – | > 100 µM | – | > 100 µM | – | > 100 µM | – | 83.1 µM | – | > 100 µM | – | > 100 µM | – | > 100 µM
15 | C=CC(=O)Nc1cc2c(Nc3ccc(F)c(Cl)c3)ncnc2cc1OCCCN1CCOCC1 | 2.37 µM and 5.1 µM | 17 µM and > 10 µM | < 0.01 µM and 0.0448 µM | 2.11 µM and > 10 µM | 2.42 µM and 4.59 µM | 7.32 µM and > 10 µM | 0.0262 µM and 0.0367 µM | 12.4 µM and > 10 µM | 0.534 µM and 0.551 µM | 2.49 µM and 5.9 µM | 1.91 µM and 2.84 µM | 14.5 µM and > 10 µM | 2.08 µM and > 6.11 µM | 5.59 µM and > 10 µM | 2.61 µM and 2.71 µM | 9.73 µM and > 10 µM | 0.0791 µM and 0.127 µM | 4.1 µM and > 9.32 µM | 1.77 µM and 2.19 µM | 4.48 µM and > 7.71 µM
16 | COc1cc2c(=O)n(CCN)c3c4cc5c(cc4ccc3c2cc1OC)OCO5 | 0.626 µM | 2.36 µM | 0.363 µM | 1.52 µM | 0.352 µM | 2.11 µM | 1.47 µM | 3.51 µM | 3.31 µM | 18 µM | – | – | 1.43 µM | 3.59 µM | 0.902 µM | 2.55 µM | 1.24 µM | 12 µM | 0.332 µM | 1.96 µM
